{
  "source": "PubChem BioAssay (NCI)",
  "experiment_in_all_cases": "inhibition of tumour cell growth, NCI panel, 48 h",
  "key": {"[1]": {"tested_on": "DLD-1 colon"}, "[2]": {"tested_on": "KM20L2 colon"}, "[3]": {"tested_on": "DMS 273 small cell lung"}},
  "note": "Where “and” joins values, the source holds several entries; their conditions need not be identical. Equal entries are not always repeated.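 Where inhibition never reached the appropriate level, the endpoint shown equals the highest concentration tested. Otherwise, values were interpolated linearly from a five-concentration, 48-hour dose response in 96-well plates. At the TGI there is no net growth.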",
  "data": [
    {"smiles": "C/C=C(/CCC1NCCc2c1[nH]c1ccccc21)[Si](C)(C)C", "note": "(stereo not drawn)", "values": [
      {"measurement": "TGI", "setting": "[1]", "value": "> 100 µM and 21.6 µM"},
      {"measurement": "TGI", "setting": "[2]", "value": "> 100 µM and 11.8 µM"},
      {"measurement": "TGI", "setting": "[3]", "value": "> 100 µM and 13.5 µM"}
    ]}
  ]
}
